# Assay results published in US10035989B2, “Method for producing polyunsaturated fatty acids in transgenic plants” (BASF Plant Science GmbH, priority 2004, dated 2018).
# Read-outs that look alike come from different tables or passages of the source.
# B1: OmELO3: elongase from Oncorhynchus mykiss, SEQ ID NO: 53 (protein)
# chain: METFNYKLNMYIDSWMGPRDERVQGWLLLDNYPPTFALTVMYLLIVWMGPKYMRHRQPVSCRGLLLVYNLGLTILSFYMFYEMVSAVWHGDYNFFCQDTHSAGETDTKIINVLWWYYFSKLIEFMDTFFFILRKNNHQITFLHIYHHASMLNIWWFVMNWVPCGHSYFGASLNSFIHVLMYSYYGLSAVPALRPYLWWKKYITQVQLIQFFLTMSQTICAVIWPCDFPRGWLYFQIFYVITLIALFSNFYIQTYKKHLVSQKKEYHQNGSVASLNGHVNGVTPTETITHRKVRGD
# modifications: Oncorhynchus mykiss; CDS (1)..(885): Delta-5 elongase
# B2: TpELO3: Δ6-elongase from Thalassiosira pseudonana, SEQ ID NO: 45 (protein, listed as Thalassiosira pseudonana)
# chain: MDAYNAAMDKIGAAIIDWSDPDGKFRADREDWWLCDFRSAITIALIYIAFVILGSAVMQSLPAMDPYPIKFLYNVSQIFLCAYMTVEAGFLAYRNGYTVMPCNHFNVNDPPVANLLWLFYISKVWDFWDTIFIVLGKKWRQLSFLHVYHHTTIFLFYWLNANVLYDGDIFLTILLNGFIHTVMYTYYFICMHTKDSKTGKSLPIWWKSSLTAFQLLQFTIMMSQATYLVFHGCDKVSLRITIVYFVSLLSLFFLFAQFFVQSYMAPKKKKSA
# modifications: CDS (1)..(819): Delta-5 elongase
# B3: OmELO2: gene product from Oncorhynchus mykiss, SEQ ID NO: 51, expressed in yeast (protein)
# chain: MASTWQSVQSMRQWILENGDKRTDPWLLVYSPMPVAIIFLLYLGVVWAGPKLMKRREPVDLKAVLIVYNFAMVCLSVYMFHEFLVTSLLSNYSYLCQPVDYSTSPLAMRMAKVCWWFFFSKVIELADTVFFILRKKNSQLTFLHVYHHGTMIFNWWAGVKYLAGGQSFFIGLLNTFVHIVMYSYYGLAALGPHTQKYLWWKRYLTSLQLLQFVLLTTHTGYNLFTECDFPDSMNAVVFAYCVSLIALFSNFYYQSYLNRKSKKT
# modifications: Oncorhynchus mykiss; CDS (1)..(795): Delta-5 elongase
# Assays:
# ELO(Ci) elongase = assay: Expression of ELO(Ci) in yeast (feeding, GLC of FAMEs); type: cell-based, Ciona intestinalis; conditions: amounts fed: in each case 250 μM
# Protocol: The yeasts were subsequently plated onto complete uracil dropout minimal medium supplemented with 2% glucose. […] Fatty acid methyl esters (FAMEs) were prepared from the yeast cell sediments by acid methanolysis. […] The FAMEs were extracted by twice extracting with petroleum ether (PE). […] (holding). […] Thereafter, the FAMEs were analyzed via GLC.
# ELO(XI) elongase = assay: Expression of ELO(XI) in yeast (feeding, GLC of FAMEs); type: cell-based, Xenopus laevis; conditions: amounts fed: in each case 250 μM
# Protocol: (§1) The yeasts were subsequently plated onto complete uracil dropout minimal medium supplemented with 2% glucose.
# (§2) Fatty acid methyl esters (FAMEs) were prepared from the yeast cell sediments by acid methanolysis. […] The FAMEs were extracted by twice extracting with petroleum ether (PE). […] (holding).
# (§3) Thereafter, the FAMEs were analyzed via GLC.
# TL16y2 Δ5-elongase = assay: Expression of TL16y2 in yeast (feeding experiments, GC); type: cell-based, Thraustochytrium ssp.
# Protocol: as §1
# (§4) The substrate specificity of BioTaurELO1 was determined after expression and feeding of various fatty acids (FIG. 6). […] After the fatty acids had been extracted from the yeasts, they were transmethylated and separated by gas chromatography. The elongation products originating from the two fatty acids which had been fed are identified by arrows.
# The functionality and substrate specificity of TL16y2 were determined after expression and feeding of various fatty acids. […] The feeding experiments were carried out in the same manner as described for BioTaurELO1. The substrates which have been fed can be detected in large amounts in all transgenic yeasts. […] This means that the gene TL16y2 has been expressed functionally.
# OtElo2.1 (Δ6-elongase) = type: cell-based, Ostreococcus tauri
# OtElo2 (Δ6-elongase) = type: cell-based, Ostreococcus tauri
# BioTaurELO1 Δ5-elongase = type: cell-based, Thraustochytrium aureum ATCC34304
# Protocol: as §1, §4
# [1] = system: biosynthesis of DHA (OmElo3, Euglena gracilis Δ4-desaturase, Phaeodactylum tricornutum Δ5-desaturase); assay: Reconstitution of the synthesis of DHA in yeast by coexpressing OmElo3, EgD4 and PtD5; type: cell-based, Saccharomyces cerevisiae
# Protocol: The reconstitution of the biosynthesis of DHA (22:6 ω3) was carried out starting from EPA (20:5 ω3) or stearidonic acid (18:4 ω3) by coexpressing OmElo3 together with the Euglena gracilis Δ4-desaturase or the Phaeodactylum tricornutum Δ5-desaturase and the Euglena gracilis Δ4-desaturase. To this end, the expression vectors pYes2-EgD4 and pESCLeu-PtD5 were additionally constructed. The abovementioned yeast strain which is already transformed with pYes3-OmElo3 (SEQ ID NO: 55), was then transformed further with pYes2-EgD4, or simultaneously with pYes2-EgD4 and pESCLeu-PtD5. […] The cultures were subsequently incubated for a further 120 hours at 15° C.
# The additional introduction of the EEgΔ4-desaturase led to the conversion of 22:5 ω3 into 22:6 ω3 DHA. After coexpression of OmElo3 and EgD4, up to 3% DHA was detected in yeasts.
# In a further coexpression experiment, OmElo3, EgD4 and a Δ5-desaturase from P. tricomutum (PtD5) were expressed together. The transgenic yeasts were fed stearidonic acid (18:4 ω3) and analyzed (FIG. 4). OmElo3 elongated the fed fatty acid 18:4 ω3 to give 20:4 ω3 (60% elongation). The latter was desaturated by PtD5 to give 20:5 ω3. The PtD5 activity amounted to 15%. Furthermore, 20:5 ω3 was elongated by […] to give 22:5 ω3. Thereafter, the newly synthesized 22:5 ω3 was desaturated to give 22:6 ω3 (DHA). Up to 0.7% of DHA was obtained in these experiments.
# PtELO6 (Δ6-elongase) = assay: Substrate specificity of PtELO6 in yeast (feeding, GLC of FAMEs); type: cell-based, Phaeodactylum tricornutum; conditions: fatty acids fed to yeast pYES2-PtELO6
# OtElo1.2 (Δ5-elongase) = type: cell-based, Ostreococcus tauri; conditions: yeast transformed with pOTE1.2 (Table 18)
# OtElo1 (Δ5-elongase) = type: cell-based, Ostreococcus tauri; conditions: yeast transformed with pOTE1 (Table 18)
# OmElo3 elongase = assay: Functional characterization of OmELO3 in yeast (fatty acid feeding, GLC of FAMEs); type: cell-based, Oncorhynchus mykiss; conditions: expression in yeast, different substrates
# TpELO3 (Δ6-elongase) = assay: Expression of TpELO3 in yeast (feeding, GLC of FAMEs); type: cell-based, Thalassiosira pseudonana
# Protocol: as §1, §2, §3
# OmELO2 = assay: Functional characterization of OmELO2 in yeast (fatty acid feeding, GLC of FAMEs); type: cell-based, Oncorhynchus mykiss; conditions: expression in yeast
# [2] = 250 μm fatty acid fed (Table 7)
# [3] = fatty acid fed to yeast expressing BioTaurELO1
molecule,measurement,setting,value
CCCCCCCCCCCCCCCC(=O)O [16:0],Conversion of the starting materials by ELO(Ci) in %,ELO(Ci) elongase,0%
same,Conversion of the starting materials by ELO(XI) in %,ELO(XI) elongase,3%
"CCCCCC/C=C\CCCCCCCC(=O)O [16:1^Δ9, palmitoleic acid]",Conversion of the starting materials by ELO(Ci) in %,ELO(Ci) elongase,0%
same,Conversion of the starting materials by ELO(XI) in %,ELO(XI) elongase,0%
CCCCCCCCCCCCCCCCCC(=O)O [18:0],Conversion of the starting materials by ELO(Ci) in %,ELO(Ci) elongase,0%
same,Conversion of the starting materials by ELO(XI) in %,ELO(XI) elongase,2%
"CCCCC/C=C\C/C=C\CCCCCCCC(=O)O [18:2^Δ9,12, linoleic acid]",Conversion of the starting materials by ELO(Ci) in %,ELO(Ci) elongase,23%
same,Conversion of the starting materials by ELO(XI) in %,ELO(XI) elongase,3%
"CCCCC/C=C\C/C=C\CC/C=C\CCCC(=O)O [18:3^Δ5,9,12, pinolenic acid (all-cis-5,9,12-octadecatrienoic acid)]",Conversion of the starting materials by ELO(Ci) in %,ELO(Ci) elongase,38%
same,Conversion of the starting materials by ELO(XI) in %,ELO(XI) elongase,13%
"CCCCC/C=C\C/C=C\C/C=C\CCCCC(=O)O [18:3^Δ6,9,12, γ-linolenic acid]",Conversion of the starting materials by ELO(Ci) in %,ELO(Ci) elongase,10%
same,conversion rate in %,TL16y2 Δ5-elongase; [2],74.9%
same,Conversion rate of OtElo2.2 (in %),OtElo2.1 (Δ6-elongase),55.7%
same,Conversion rate of OtElo2 (in %),OtElo2 (Δ6-elongase),15.3%
same,conversion rate,BioTaurELO1 Δ5-elongase,65.28%
same,Conversion of the starting materials by ELO(XI) in %,ELO(XI) elongase,12%
"CC/C=C\C/C=C\C/C=C\C/C=C\CCCCC(=O)O [18:4^Δ6,9,12,15, stearidonic acid]",Conversion of the starting materials by ELO(Ci) in %,ELO(Ci) elongase,3%
same,conversion rate in %,TL16y2 Δ5-elongase; [2],79.4%
same,Conversion rate of OtElo2.2 (in %),OtElo2.1 (Δ6-elongase); yeast transformed with pOTE2.1 (Table 19),70.4%
same,Conversion rate of OtElo2 (in %),OtElo2 (Δ6-elongase); yeast transformed with pOTE2 (Table 19),21.1%
same,conversion rate,BioTaurELO1 Δ5-elongase; [3],65.66%
same,elongation of 18:4 ω3 to 20:4 ω3,"[1]; coexpression of OmElo3, EgD4 and PtD5, fed 18:4 ω3",60%
same,Conversion of the starting materials by ELO(XI) in %,ELO(XI) elongase,20%
"CCCCC/C=C\C/C=C\C/C=C\CCCCCCC(=O)O [20:3^Δ8,11,14, dihomo-γ-linolenic acid]",Conversion of the starting materials by ELO(Ci) in %,ELO(Ci) elongase,10%
same,conversion by PtELO6,PtELO6 (Δ6-elongase),not converted
same,Conversion of the starting materials by ELO(XI) in %,ELO(XI) elongase,5%
"CC/C=C\C/C=C\C/C=C\CCCCCCCCCC(=O)O [20:3^Δ11,14,17]",Conversion of the starting materials by ELO(Ci) in %,ELO(Ci) elongase,8%
same,conversion by PtELO6,PtELO6 (Δ6-elongase),not converted
same,Conversion of the starting materials by ELO(XI) in %,ELO(XI) elongase,13%
"CCCCC/C=C\C/C=C\C/C=C\C/C=C\CCCC(=O)O [20:4^Δ5,8,11,14, arachidonic acid]",Conversion rate of OtElo1.2 (in %),OtElo1.2 (Δ5-elongase),38.0%
same,Conversion of the starting materials by ELO(Ci) in %,ELO(Ci) elongase,10%
same,conversion by PtELO6,PtELO6 (Δ6-elongase),not converted
same,conversion rate in %,TL16y2 Δ5-elongase; [2],20.3%
same,conversion rate,BioTaurELO1 Δ5-elongase; [3],14.47%
same,Conversion rate of OtElo1 (in %),OtElo1 (Δ5-elongase),10.8 ± 0.6%
same,Conversion of the starting materials by ELO(XI) in %,ELO(XI) elongase,15%
"CC/C=C\C/C=C\C/C=C\C/C=C\C/C=C\CCCC(=O)O [20:5^Δ5,8,11,14,17, eicosapentaenoic acid]",Conversion rate of OtElo1.2 (in %),OtElo1.2 (Δ5-elongase),68.6%
same,Conversion of the starting materials by ELO(Ci) in %,ELO(Ci) elongase,15%
same,conversion rate in %,TL16y2 Δ5-elongase; 50 μm fatty acid fed,41%
same,conversion rate in %,TL16y2 Δ5-elongase; [2],8%
same,conversion rate,BioTaurELO1 Δ5-elongase; [3],22.01%
same,conversion rate,BioTaurELO1 Δ5-elongase; when feeding GLA and EPA together,9.99%
same,elongation of 20:5 ω3 to 22:5 ω3,"[1]; yeast with pYes3-OmElo3 and blank vector pYes2, fed 20:5 ω3",65%
same,Conversion rate of OtElo1 (in %),OtElo1 (Δ5-elongase),46.8 ± 3.6%
same,Conversion of the starting materials by ELO(XI) in %,ELO(XI) elongase,10%
"CCCCCC=CCC=CCC=CCC=CCCCCCC(=O)O [22:4^Δ7,10,13,16, docosatetraenoic acid]",Conversion of the starting materials by ELO(Ci) in %,ELO(Ci) elongase,0%
same,conversion by PtELO6,PtELO6 (Δ6-elongase),not converted
same,Conversion of the starting materials by ELO(XI) in %,ELO(XI) elongase,0%
"CC/C=C\C/C=C\C/C=C\C/C=C\C/C=C\C/C=C\CCC(=O)O [22:6^Δ4,7,10,13,16,19, docosahexaenoic acid]",Conversion of the starting materials by ELO(Ci) in %,ELO(Ci) elongase,0%
same,Conversion of the starting materials by ELO(XI) in %,ELO(XI) elongase,0%
"eicosadienoic acid [20:2^Δ11,14]",conversion by PtELO6,PtELO6 (Δ6-elongase),not converted
B1,elongase activity,OmElo3 elongase,pronounced activity
B2,"% conversion, column 5",TpELO3 (Δ6-elongase); fed 250 μm arachidonic acid,0%
same,"% conversion, column 6",TpELO3 (Δ6-elongase); fed 250 μm eicosapentaenoic acid,0%
same,"% conversion, column 4",TpELO3 (Δ6-elongase); fed 250 μm stearidonic acid,85%
same,"% conversion, column 3",TpELO3 (Δ6-elongase); fed 250 μm γ-linolenic acid,75%
B3,elongase activity,OmELO2,no elongase activity
